# Results reported in ChEMBL document CHEMBL1126894 (J Med Chem, 1993).
# Structures can show the parent of a compound that is named as a salt.
# Key:
# [1] = biological target: T1, 5-hydroxytryptamine receptor 1A (Rattus norvegicus, UniProt P19327); assay: Binding affinity by measuring displacement of [3H]-8-OH-DPAT from 5-hydroxytryptamine 1A receptor in rat hippocampus; assay type: tissue-based
# T1 sequence (P19327 whole entry): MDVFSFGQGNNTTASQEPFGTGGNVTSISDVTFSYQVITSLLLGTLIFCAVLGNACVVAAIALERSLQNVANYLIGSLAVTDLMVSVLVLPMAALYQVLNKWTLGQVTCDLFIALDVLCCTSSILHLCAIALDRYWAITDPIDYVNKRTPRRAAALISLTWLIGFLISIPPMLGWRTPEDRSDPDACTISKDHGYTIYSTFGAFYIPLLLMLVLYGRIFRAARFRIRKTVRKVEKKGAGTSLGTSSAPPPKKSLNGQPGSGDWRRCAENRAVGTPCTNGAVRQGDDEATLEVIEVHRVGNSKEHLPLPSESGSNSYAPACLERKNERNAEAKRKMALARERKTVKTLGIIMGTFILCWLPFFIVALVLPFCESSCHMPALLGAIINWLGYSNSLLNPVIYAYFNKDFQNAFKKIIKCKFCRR
# [2] = tested on: Rattus norvegicus; assay: Anticonflict activity on water lick conflict test in rats is no of shocks in 5 min. administered perorally 1 mg/kg (no. of rats); assay type: functional; details: route oral
# [3] = tested on: Mus musculus; assay: Ability to reverse scopolamine-induced amnesia in a passive avoidance test to assess memory impairment administered perorally 30 mg/kg; assay type: functional; details: route oral
# [4] = tested on: Mus musculus; assay: Ability to reverse scopolamine-induced amnesia in a passive avoidance test to assess memory impairment administered perorally 10 mg/kg; assay type: functional; details: route oral
# [5] = tested on: Mus musculus; assay: Ability to reverse scopolamine-induced amnesia in a passive avoidance test to assess memory impairment administered perorally 3 mg/kg; assay type: functional; details: route oral
# [6] = tested on: Rattus norvegicus; assay: Anticonflict activity on water lick conflict test in rats by measuring no. of shocks in 5 min. administered perorally at 3 mg/kg; assay type: functional; details: route oral
# [7] = tested on: Rattus norvegicus; assay: Anticonflict activity on water lick conflict test in rats by measuring no. of shocks in 5 min. administered perorally at 30 mg/kg; assay type: functional; details: route oral
# [8] = biological target: T1, 5-hydroxytryptamine receptor 1A; assay: Inhibitory concentration against 5-hydroxytryptamine 1A receptor
# [9] = tested on: Rattus norvegicus; assay: Anticonflict activity on water lick conflict test in rats by measuring no. of shocks in 5 min. administered perorally at 10 mg/kg; assay type: functional; details: route oral
# [10] = tested on: Mus musculus; assay: Ability to reverse scopolamine-induced amnesia in a passive avoidance test to assess memory impairment administered perorally at 30 mg/kg; assay type: functional; details: route oral
# [11] = tested on: Rattus norvegicus; assay: Anticonflict activity on water lick conflict test in rats by measuring no. of shocks in 5 min. administered perorally at 1 mg/kg; assay type: functional; details: route oral
# [12] = tested on: Mus musculus; assay: Ability to reverse scopolamine-induced amnesia in a passive avoidance test to assess memory impairment administered perorally 1 mg/kg; assay type: functional; details: route oral
# [13] = biological target: T1, 5-hydroxytryptamine receptor 1A; assay: Binding affinity for 5-hydroxytryptamine 1A receptor by use of [3H]8-OH-DPAT in male rat
# [14] = tested on: Mus musculus; assay: Ability to reverse scopolamine-induced amnesia in a passive avoidance test to assess memory impairment; administered perorally 5 mg/kg (no. of mice); assay type: functional; details: route oral
# [15] = tested on: Rattus norvegicus; assay: Anticonflict activity on water lick conflict test in rats is no. of shocks in 5 min; administered perorally 10 mg/kg (no. of rats); assay type: functional; details: route oral
# [16] = tested on: Mus musculus; assay: Ability to reverse scopolamine-induced amnesia in a passive avoidance test to assess memory impairment administered perorally 1 mg/kg (no. of mice); assay type: functional; details: route oral
# [17] = biological target: D(2) dopamine receptor (Homo sapiens, UniProt P14416); assay: Binding affinity for DA2 receptor
# Chain of D(2) dopamine receptor (P14416 whole entry): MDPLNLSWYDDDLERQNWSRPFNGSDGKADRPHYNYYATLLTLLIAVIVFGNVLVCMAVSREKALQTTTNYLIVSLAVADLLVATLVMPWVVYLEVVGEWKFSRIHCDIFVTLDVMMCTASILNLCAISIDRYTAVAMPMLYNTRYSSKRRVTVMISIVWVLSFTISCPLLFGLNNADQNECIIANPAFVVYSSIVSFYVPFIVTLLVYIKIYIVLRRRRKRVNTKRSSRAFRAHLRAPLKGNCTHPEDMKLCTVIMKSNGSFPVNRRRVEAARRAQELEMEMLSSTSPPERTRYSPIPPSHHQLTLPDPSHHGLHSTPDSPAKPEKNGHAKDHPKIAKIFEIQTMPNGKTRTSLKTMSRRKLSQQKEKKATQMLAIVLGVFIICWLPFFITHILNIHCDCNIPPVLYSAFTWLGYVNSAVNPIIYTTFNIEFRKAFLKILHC
smiles,measurement,setting,value
O=C(OC1CCCCCC1)[C@H]1Cc2c(sc3ccccc23)CN1,IC50,[1],55.2 nM
O=C(NC1CCCC1)[C@H]1Cc2c(sc3ccccc23)CN1,IC50,[1],111 nM
O=C(NC1CCCCC1)[C@H]1Cc2c(sc3ccccc23)CN1,IC50,[1],27.2 nM
CCC(CC)NC(=O)[C@H]1Cc2c(sc3ccccc23)CN1,IC50,[1],126 nM
Cl.O=C(NC1CCCCC1O)[C@H]1Cc2c(sc3ccccc23)CN1 (stereo partly drawn),No. of shocks,[2],21.6
same,Latency to step through,[3],50.8 s
same,Latency to step through,[4],41.6 s
same,Latency to step through,[5],68.2 s
same,No. of shocks,[6],34.9
same,IC50,[1],148 nM
same,No. of shocks,[7],26.1
CCCCCCNC(=O)[C@H]1Cc2c(sc3ccccc23)CN1,IC50,[1],91.2 nM
O=C(NCC1CCCCC1)[C@H]1Cc2c(sc3ccccc23)CN1,IC50,[1],20.2 nM
O=C(OC1CCCCC1)[C@H]1Cc2c(sc3ccccc23)CN1,IC50,[1],50.4 nM
O=C(Nc1ccccc1)[C@H]1Cc2c(sc3ccccc23)CN1,IC50,[1],272 nM
O=C(NC1CCCCCC1)[C@H]1Cc2c(sc3ccccc23)CN1,IC50,[1],28.4 nM
CCCCCCCNC(=O)[C@H]1Cc2c(sc3ccccc23)CN1,IC50,[8],126 nM
O=C(NC1CCC1)[C@H]1Cc2c(sc3ccccc23)CN1,IC50,[1],232 nM
Cl.O=C(NCc1ccc2c(c1)OCO2)[C@H]1Cc2c(sc3ccccc23)CN1,No. of shocks,[9],28.3
same,Latency to step through,[10],104.7 s
same,Latency to step through,[5],89 s
same,No. of shocks,[11],22.1
same,Latency to step through,[12],94.6 s
same,No. of shocks,[6],22.9
same,IC50,[1],53.1 nM
same,Ki,[13],53.1 nM
O=C(NC1CCCCCCC1)[C@H]1Cc2c(sc3ccccc23)CN1,IC50,[1],22.9 nM
O=C(NC12CC3CC(CC(C3)C1)C2)[C@H]1Cc2c(sc3ccccc23)CN1,IC50,[1],61.6 nM
CC(C)(C)C1CCC(NC(=O)[C@H]2Cc3c(sc4ccccc34)CN2)CC1 (stereo partly drawn),IC50,[1],52.7 nM
CC1CCC(NC(=O)[C@H]2Cc3c(sc4ccccc34)CN2)CC1 (stereo partly drawn),IC50,[1],32.4 nM
CC1CCCCC1NC(=O)[C@H]1Cc2c(sc3ccccc23)CN1 (stereo partly drawn),IC50,[1],28 nM
O=C(OC1CCCC1)[C@H]1Cc2c(sc3ccccc23)CN1,IC50,[1],121 nM
Cc1ccc(CNC(=O)[C@H]2Cc3c(sc4ccccc34)CN2)cc1,IC50,[1],133 nM
C[C@H](NC(=O)[C@H]1Cc2c(sc3ccccc23)CN1)c1ccccc1,IC50,[1],58.4 nM
O=C(NN1CCCCC1)[C@H]1Cc2c(sc3ccccc23)CN1,IC50,[1],211 nM
O=C(OC1CCCCCCC1)[C@H]1Cc2c(sc3ccccc23)CN1,IC50,[1],67.3 nM
O=C(NC1CCCCC1)[C@@H]1Cc2c(sc3ccccc23)CN1,IC50,[1],> 5000 nM
O=C(NC1CC2CCC1C2)[C@H]1Cc2c(sc3ccccc23)CN1 (stereo partly drawn),IC50,[1],66.4 nM
"O=C(NCc1ccc2c(c1)OCO2)C1Cc2c(sc3ccccc23)CN1 (single isomer, unassigned)",IC50,[1],> 5000 nM
CN1C(=O)CN=C(c2ccccc2)c2cc(Cl)ccc21 [DIAZEPAM],Latency to step through,[14],10.6 s
same,No. of shocks,[15],25.6
CN1[C@@H]2C[C@@H](OC(=O)[C@H](CO)c3ccccc3)C[C@H]1[C@@H]1O[C@@H]12 [SCOPOLAMINE],Latency to step through,[16],16 s
O=C1[C@@H]2[C@H]3CC[C@H](C3)[C@@H]2C(=O)N1CCCCN1CCN(c2ncccn2)CC1 [TANDOSPIRONE HYDROCHLORIDE],Ki,[17],28 nM
